Laboratory results as given in ChEMBL document CHEMBL1141144, “Discovery and structure-activity relationship of 3-aryl-5-aryl-1,2,4-oxadiazoles as a new series of apoptosis inducers and potential anticancer agents” (J Med Chem, 2005).

Tests used:
Format in all cases: functional
DLD-1 = assay: Growth inhibitory activity against DLD-1 cells done for 48 h at 37 degree C with compound; details: Homo sapiens, DLD-1, 48 h
NCI-H1299 = assay: Growth inhibitory activity against H1299 cells done for 48 h at 37 degree C with compound; details: Homo sapiens, NCI-H1299, 48 h
T47D = assay: Growth inhibitory activity aganist T47D cells done for 48 hr at 37 degree C with compound; details: Homo sapiens
Mus musculus = organism: Mus musculus; assay: Inhibition of tumor growth in mice with MX-1 tumor after treatment in combination with paclitaxel

| SMILES | GI50 (DLD-1) [nM] | GI50 (NCI-H1299) [µM] | GI50 (T47D) [nM] | Inhibition (Mus musculus) [%] |
| --- | --- | --- | --- | --- |
| Clc1ccc(-c2noc(-c3occc3Br)n2)cc1 | 510 | > 10 | 120 |  |
| Clc1ccc(-c2noc(-c3occc3Cl)n2)nc1 | 600 | > 10 | 13000 |  |
| FC(F)(F)c1ccc(-c2noc(-c3sccc3Cl)n2)nc1 | 930 | > 10 | 350 |  |
| Clc1ccc(-c2noc(-c3sccc3Cl)n2)nc1 | 800 | > 10 | 200 |  |
| Cc1ccc(-c2noc(-c3sccc3Cl)n2)cc1 | 850 | > 10 | 2200 |  |
| Clc1ccc(-c2noc(-c3sccc3Br)n2)cc1 | 580 | > 10 | 570 |  |
| COc1ccc(-c2noc(-c3sccc3Cl)n2)cc1 | 930 | > 10 | 520 |  |
| FC(F)(F)c1ccc(-c2noc(-c3sccc3Cl)n2)cc1 | 770 | > 10 | 220 |  |
| Clc1ccc(-c2noc(-c3occc3Cl)n2)cc1 | 510 | > 10 | 120 | 83 |

Now those with a lower GI50 (DLD-1), led by results:

| GI50 (DLD-1) [nM] | GI50 (NCI-H1299) [µM] | GI50 (T47D) [nM] | SMILES | Inhibition (Mus musculus) [%] |
| --- | --- | --- | --- | --- |
| 130 | > 10 | 320 | FC(F)(F)c1ccc(-c2noc(-c3occc3Br)n2)cc1 |  |
| 430 | > 10 | 380 | Clc1ccc(-c2noc(-c3occc3Br)n2)nc1 |  |
| 400 | > 10 | 190 | Clc1ccc(-c2noc(-c3sccc3Cl)n2)cc1 |  |
| 350 | > 10 | 170 | FC(F)(F)c1ccc(-c2noc(-c3occc3Cl)n2)cc1 |  |
